Experimental data: patent publication US20240423973A1, “COMPOUNDS, PHARMACEUTICAL COMPOSITIONS, AND METHODS FOR THE TREATMENT, PREVENTION, OR MANAGEMENT OF HYPERPROLIFERATIVE DISORDERS” (VINCERX PHARMA GMBH, priority 2021, published 2024)

Columns and labels:
Assay in all cases: Cytotoxicity in vitro in the presence and absence of elastase (MTT assay)
[1] = test system: 786-O; type: cell-based, human; details: 786-O cells, 72 h
Experimental: (§1) Cultivation of cells was performed according to standard procedures with the media recommended by the provider. The cells, in a total volume of 100 μL, were seeded in a 96-well plate with a white bottom (#3610). After a 24 h incubation period at 37° C. and 5% CO2, the medium was exchanged by adding 90 μL fresh medium. The treatment started by adding the test compound in 10 μL of culture medium to the cells in triplicates. Concentrations ranging from 10^−5 M to 10^−13 M were chosen. Two identically treated sets of samples were prepared. One set was treated with the test compound alone, whereas to the second set the compound and 10 nM elastase was added followed by a 72 h incubation period at 37° C. and 5% CO2. The proliferation was detected using the MTT assay (ATCC). At the end of the incubation period the MTT reagent was added to all samples for 4h. Lysis of the cells followed by addition of the detergent was done overnight. The formed dye was detected at 570 nm. The proliferation of untreated but otherwise identically handled cells was define as the […].

[2] = test system: HT29; type: cell-based, human; details: HT29 cells, 72 h
Experimental: as §1

[3] = test system: NCI H292; type: cell-based, human; details: NCI H292 cells, 72 h
Experimental: as §1

[4] = test system: SUM149; type: cell-based; details: SUM149 cells, 72 h
Experimental: as §1

CCCNC(=O)Nc1cccc(S(=O)(=O)Nc2cccc([C@@H](CC(=O)O)NC(=O)Nc3ccc(NC(=O)NCCOCCOCCOCCC(=O)N[C@@H](CC(=O)OCCCCN(C)C)C(=O)N4CCC[C@H]4C(=O)N[C@H](C(=O)O[C@]4(CC)C(=O)OCc5c4cc4n(c5=O)Cc5c-4nc4ccccc4c5CC)C(C)C)cc3)c2)c1 [Compound C6, sodium (3R)-3-[({4-[({(10S)-10-[(2S)-2-{[(2S)-1-{[(4S)-4,11-diethyl-3,14-dioxo-3,4,12,14-tetrahydro-1H-pyrano[3′,4′:6,7]indolizino[1,2-b]quinolin-4-yl]oxy}-3-methyl-1-oxobutan-2-yl]carbamoyl}pyrrolidine-1-carbonyl]-2-methyl-8,12-dioxo-7,15,18,21-tetraoxa-2,11-diazatricosan-23-yl}carbamoyl)amino]phenyl}carbamoyl)amino]-3-[3-({3-[(propylcarbamoyl)amino]benzene-1-sulfonyl}amino)phenyl]propanoate]
IC50 ([1]; compound alone (no elastase)): 10 to 100 nM
IC50 ([1]; with 10 nM elastase): 0.1 to 1 nM
IC50 ([2]; compound alone (no elastase)): 10 to 100 nM
IC50 ([2]; with 10 nM elastase): 0.1 to 1 nM
IC50 ([3]; compound alone (no elastase)): 10 to 100 nM
IC50 ([3]; with 10 nM elastase): 0.1 to 1 nM
IC50 ([4]; compound alone (no elastase)): 10 to 100 nM
IC50 ([4]; with 10 nM elastase): 0.01 to 0.1 nM

CCCNC(=O)Cc1cccc(S(=O)(=O)Nc2cccc([C@@H](CC(=O)O)NC(=O)Nc3ccc(NC(=O)NCCOCCOCCOCCC(=O)N[C@@H](CCCCNC(=O)CCOCCOCCOCCNC(=O)Nc4ccc(NC(=O)N[C@H](CC(=O)O)c5cccc(CS(=O)(=O)c6cccc(NC(=O)NCCC)c6)c5)cc4)C(=O)NCCN(C)CCN(C)CCN(C)CC(=O)N[C@@H](CC(N)=O)C(=O)N4CCC[C@H]4C(=O)N[C@H](C(=O)O[C@]4(CC)C(=O)OCc5c4cc4n(c5=O)Cc5c-4nc4ccccc4c5CC)C(C)C)cc3)c2)c1 [Compound A5]
IC50 ([1]; compound alone (no elastase)): 10 to 100 nM
IC50 ([1]; with 10 nM elastase): 0.01 to 0.1 nM
IC50 ([2]; compound alone (no elastase)): 10 to 100 nM
IC50 ([2]; with 10 nM elastase): 0.01 to 0.1 nM
IC50 ([3]; compound alone (no elastase)): 1.1 to 10 nM
IC50 ([3]; with 10 nM elastase): < 0.01 nM
IC50 ([4]; compound alone (no elastase)): 1.1 to 10 nM
IC50 ([4]; with 10 nM elastase): < 0.01 nM

CCCNC(=O)Nc1cccc(S(=O)(=O)Nc2cccc([C@@H](CC(=O)O)NC(=O)Nc3ccc(NC(=O)NCCCC[C@H](NC(=O)Nc4ccc(NC(=O)N[C@H](CC(=O)O)c5cccc(NS(=O)(=O)c6cccc(NC(=O)NCCC)c6)c5)cc4)C(=O)NCCOCCOCCOCCC(=O)N[C@@H](CC(=O)O)C(=O)N4CCC[C@H]4C(=O)N[C@H](C(=O)O[C@]4(CC)C(=O)OCc5c4cc4n(c5=O)Cc5c-4nc4ccccc4c5CC)C(C)C)cc3)c2)c1 [Compound A1, Trisodium (4S)-4,11-diethyl-3,14-dioxo-3,4,12,14-tetrahydro-1H-pyrano[3′,4′:6,7]indolizino [1,2-b]quinoline-4-yl 1-[(2S)-15-{[N^2,N^6-bis({4-[({(1R)-2-carboxylato-1-[3-({3-[(propylcarbamoyl)amino]benzene-1-sulfonyl}amino)phenyl]ethyl}carbamoyl)amino]phenyl}carbamoyl)-L-lysyl]amino}-2-(carboxylatomethyl)-4-oxo-7,10,13-trioxa-3-azapentadecanan-1-oyl]-L-prolyl-L-valinate]
IC50 ([1]; compound alone (no elastase)): 10 to 100 nM
IC50 ([1]; with 10 nM elastase): 0.1 to 1 nM
IC50 ([2]; compound alone (no elastase)): > 100 nM
IC50 ([2]; with 10 nM elastase): 0.01 to 0.1 nM
IC50 ([3]; compound alone (no elastase)): 10 to 100 nM
IC50 ([3]; with 10 nM elastase): 0.1 to 1 nM
IC50 ([4]; compound alone (no elastase)): 10 to 100 nM
IC50 ([4]; with 10 nM elastase): 0.01 to 0.1 nM
